{"source": "patent US11274115B2", "about": "“Imidazoquinoline derivatives and their use in therapy” (GLAXOSMITHKLINE BIOLOGICALS SA, priority 2016, dated 2022)", "type_in_all_cases": "cell-based", "key": {"human TLR7": {"molecular_target": "T1, human TLR7 (Homo sapiens, UniProt Q9NYK1)", "T1 construct": "host or cells: HEK293", "T1 sequence (Q9NYK1 27-1049)": "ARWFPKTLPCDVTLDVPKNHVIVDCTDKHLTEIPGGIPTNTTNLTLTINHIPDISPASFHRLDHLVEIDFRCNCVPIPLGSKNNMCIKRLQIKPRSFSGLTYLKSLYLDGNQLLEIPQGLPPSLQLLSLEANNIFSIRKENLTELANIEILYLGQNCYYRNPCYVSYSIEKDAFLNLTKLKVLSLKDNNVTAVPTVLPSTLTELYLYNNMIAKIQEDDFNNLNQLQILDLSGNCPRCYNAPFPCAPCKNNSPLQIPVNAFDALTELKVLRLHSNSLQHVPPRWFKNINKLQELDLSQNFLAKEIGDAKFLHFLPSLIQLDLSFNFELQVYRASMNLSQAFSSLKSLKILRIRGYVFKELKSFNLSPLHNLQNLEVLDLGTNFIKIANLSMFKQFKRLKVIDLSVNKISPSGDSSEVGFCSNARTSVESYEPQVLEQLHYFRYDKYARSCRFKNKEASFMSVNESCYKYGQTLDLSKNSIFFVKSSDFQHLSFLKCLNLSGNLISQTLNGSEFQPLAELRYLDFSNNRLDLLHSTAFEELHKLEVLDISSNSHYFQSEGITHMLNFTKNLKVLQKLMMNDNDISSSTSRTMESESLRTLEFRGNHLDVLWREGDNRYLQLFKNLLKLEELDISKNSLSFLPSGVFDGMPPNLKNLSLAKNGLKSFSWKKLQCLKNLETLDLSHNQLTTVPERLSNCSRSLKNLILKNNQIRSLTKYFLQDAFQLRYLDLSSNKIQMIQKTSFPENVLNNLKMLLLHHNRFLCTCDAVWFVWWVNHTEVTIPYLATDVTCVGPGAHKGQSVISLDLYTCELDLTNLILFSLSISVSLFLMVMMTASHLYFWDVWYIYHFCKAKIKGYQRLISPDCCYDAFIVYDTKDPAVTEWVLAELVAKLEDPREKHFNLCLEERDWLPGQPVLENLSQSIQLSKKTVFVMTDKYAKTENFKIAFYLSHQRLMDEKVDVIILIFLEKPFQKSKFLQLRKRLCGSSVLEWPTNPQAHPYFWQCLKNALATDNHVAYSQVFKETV", "experiment": "hTLR7 agonist reporter assay in HEK293 cells (NFκB-SEAP)", "settings": "for hTLR7/8 ratio: hTLR7 ED50 over hTLR8 ED50; for EC50: read-out: hTLR7 ED50", "description": "(§1) Assay for hTLR7 and hTLR8 Agonist Activity in HEK-293 Cells\n(§2) Determination of TLR agonist activity was performed using the HEK293 […]. This assay measures TLR7 and TLR8 selectivity and potency of the compounds tested. HEK293 cells expressing human TLR7 or TLR8 and NFκB responsive Secreted Embryonic Alkaline Phosphatase (SEAP) reporter gene were obtained from InvivoGen (San Diego, Calif.). These cells were maintained in culture media of Dulbecco's Modified Eagle Medium (DMEM) (Invitrogen, Grand Island, N.Y.), 10% Fetal Bovine Serum (FBS) (Sigma, St. Louis, Mo.) and selection antibiotics (Invitrogen, and Invivogen). HEK293 stably transfected with human TLR7 (hTLR7) or human TLR8 (hTLR8) were stimulated for 24 h with aqueous formulations of test compounds and culture supernatants were analyzed for NFκB activation using the colorimetric SEAP detection kit QuantBlue (InvivoGen)."}, "human TLR8": {"molecular_target": "T2, human TLR8 (Homo sapiens, UniProt Q9NR97)", "T2 construct": "host or cells: HEK293", "T2 sequence (Q9NR97 27-1041)": "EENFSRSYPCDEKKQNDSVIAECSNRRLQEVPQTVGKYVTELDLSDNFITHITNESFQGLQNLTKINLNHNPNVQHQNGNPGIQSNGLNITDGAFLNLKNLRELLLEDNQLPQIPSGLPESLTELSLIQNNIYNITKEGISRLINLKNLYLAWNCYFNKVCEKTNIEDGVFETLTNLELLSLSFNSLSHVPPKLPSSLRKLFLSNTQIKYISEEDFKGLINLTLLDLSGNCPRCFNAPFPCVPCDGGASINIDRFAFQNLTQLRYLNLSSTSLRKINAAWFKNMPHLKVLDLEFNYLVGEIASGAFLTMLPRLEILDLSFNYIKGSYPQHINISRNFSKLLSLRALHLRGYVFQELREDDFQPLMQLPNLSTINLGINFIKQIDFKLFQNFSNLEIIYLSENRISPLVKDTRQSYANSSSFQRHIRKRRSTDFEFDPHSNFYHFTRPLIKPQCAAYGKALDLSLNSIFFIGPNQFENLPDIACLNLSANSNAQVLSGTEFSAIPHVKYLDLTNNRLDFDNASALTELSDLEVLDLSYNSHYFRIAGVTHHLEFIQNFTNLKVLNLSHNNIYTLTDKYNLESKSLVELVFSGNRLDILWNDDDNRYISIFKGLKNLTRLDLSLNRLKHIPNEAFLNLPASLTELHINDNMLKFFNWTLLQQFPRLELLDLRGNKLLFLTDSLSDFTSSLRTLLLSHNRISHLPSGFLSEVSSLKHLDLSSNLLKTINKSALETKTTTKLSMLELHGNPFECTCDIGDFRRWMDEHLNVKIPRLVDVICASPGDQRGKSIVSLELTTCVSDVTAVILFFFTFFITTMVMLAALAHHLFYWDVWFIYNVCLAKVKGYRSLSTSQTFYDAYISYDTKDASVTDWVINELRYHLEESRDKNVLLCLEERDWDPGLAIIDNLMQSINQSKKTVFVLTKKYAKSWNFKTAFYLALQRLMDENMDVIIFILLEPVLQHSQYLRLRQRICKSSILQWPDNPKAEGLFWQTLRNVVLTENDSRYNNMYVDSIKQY", "experiment": "hTLR8 agonist reporter assay in HEK293 cells (NFκB-SEAP)", "settings": "for EC50: read-out: hTLR8 ED50", "description": "as §1, §2"}, "[1]": {"tested_on": "human peripheral blood mononuclear cells (hPBMCs)", "experiment": "IFN-γ induction in hPBMCs", "settings": "24 h, FIG. 11, another occasion", "description": "(§3) Assays to Measure Cytokine Induction\n(§4) Test compounds were evaluated for cytokine induction in human peripheral blood mononuclear cells (hPBMCs).\n(§5) Primary human PBMCs were isolated from fresh blood from healthy donors via Ficoll gradient separation and plated at 0.5×10^6 cells/well in 96-well tissue culture plates (RPMI-1640 plus 10% FBS). hPBMCs were maintained with RPMI-1640 culture media (Invitrogen, Grand Island, N.Y.), antibiotics (Invitrogen) and 10% FBS (Sigma).\n(§6) Incubation and Assays for IFN-γ, IFN-α and TNF-α\n(§7) hPBMCs were stimulated for 24 h with aqueous formulations of test compounds. Culture supernatants were analyzed for TNF-α and IFN-γ induction using multiplex kits (FluoroKine multiplex kits from R&D Systems, Minneapolis, Minn.) and for IFN-α induction using human IFN-α VeriKine ELISA kit (Pestka Biomedical Laboratories, Inc., Piscataway, N.J.)."}, "[2]": {"tested_on": "human peripheral blood mononuclear cells (hPBMCs)", "experiment": "IFN-α induction in hPBMCs", "settings": "24 h", "description": "as §3, §4, §5, §6, §7"}, "[3]": {"tested_on": "human peripheral blood mononuclear cells (hPBMCs)", "experiment": "TNF-α induction in hPBMCs", "settings": "24 h", "description": "as §3, §4, §5, §6, §7"}, "[4]": {"settings": "Table 2, FIG. 3, another occasion, * = only very low levels of NFKB activation were detected"}, "[5]": {"settings": "Table 2, FIG. 4, another occasion, * = only very low levels of NFKB activation were detected"}}, "note": "Like-named read-outs stand apart in the source and are kept apart here.", "data": [{"smiles": "CCCCc1nc2c(N)nc3ccccc3c2n1CCO", "note": "[Comparative Example 1, reference compound]", "values": [{"measurement": "hTLR7/8 ratio", "setting": "human TLR7; Table 1", "value": 3.1}, {"measurement": "EC50", "setting": "human TLR7; [4]", "value": 1000, "unit": "nM"}, {"measurement": "hTLR7/8 ratio", "setting": "human TLR7; Table 2", "value": 2.3}, {"measurement": "EC50", "setting": "human TLR7; Table 3, FIG. 5, another occasion, * = only very low levels of NFKB activation were detected", "value": 1100, "unit": "nM"}, {"measurement": "hTLR7/8 ratio", "setting": "human TLR7; Table 3", "value": 1.5}, {"measurement": "EC50", "setting": "human TLR7; Table 4, FIG. 7, another occasion", "value": 1500, "unit": "nM"}, {"measurement": "hTLR7/8 ratio", "setting": "human TLR7; Table 4", "value": 2.4}, {"measurement": "EC50", "setting": "human TLR8; [5]", "value": 400, "unit": "nM"}, {"measurement": "EC50", "setting": "human TLR8; Table 3, FIG. 6, another occasion, * = only very low levels of NFKB activation were detected", "value": 720, "unit": "nM"}, {"measurement": "EC50", "setting": "human TLR8; Table 4, FIG. 8, another occasion", "value": 610, "unit": "nM"}, {"measurement": "IFN-γ induction, in words", "setting": "[1]", "value": "the most potent at inducing IFN-γ"}, {"measurement": "IFN-α induction, in words", "setting": "[2]; FIG. 14, another occasion", "value": "Weaker effects"}, {"measurement": "IFN-α induction, in words", "setting": "[2]; FIG. 16, another occasion", "value": "induced little IFN-α"}, {"measurement": "TNF-α induction, in words", "setting": "[3]; FIG. 13", "value": "potent at inducing TNF-α"}, {"measurement": "TNF-α induction, in words", "setting": "[3]; FIG. 15, another occasion", "value": "effective at inducing TNF-α"}]}, {"smiles": "CCCCCCCC/C=C\\CCCCCCCC(=O)OC[C@@H](O)COP(=O)(O)OCCOc1ccc2c(c1)nc(N)c1nc(CCCC)n(CCO)c12", "note": "[Example 3]", "values": [{"measurement": "relative potency hTLR7 versus hTLR8, in words", "setting": "human TLR7; Table 2", "value": "approximately equally potent at both receptors"}, {"measurement": "EC50", "setting": "human TLR7; [4]", "value": 3400, "unit": "nM"}, {"measurement": "hTLR7/8 ratio", "setting": "human TLR7; Table 2", "value": 1.2}, {"measurement": "hTLR7 agonist activity, in words", "setting": "human TLR7; text on Table 2, FIG. 3", "value": "potent agonist of hTLR7 and hTLR8"}, {"measurement": "EC50", "setting": "human TLR8; [5]", "value": 2800, "unit": "nM"}, {"measurement": "hTLR8 agonist activity, in words", "setting": "human TLR8; text on Table 2, FIG. 4", "value": "potent agonist of hTLR7 and hTLR8"}, {"measurement": "IFN-γ induction, in words", "setting": "[1]", "value": "potent at inducing IFN-γ and each was more potent than Comparative Example 3"}, {"measurement": "IFN-α induction, in words", "setting": "[2]; FIG. 12, another occasion", "value": "more potent at inducing IFN-α than Comparative Examples 1, 2 and 3"}, {"measurement": "TNF-α induction, in words", "setting": "[3]; FIG. 13", "value": "potent at inducing TNF-α"}]}]}
